{
  "source": "patent US6497886B1",
  "about": "“1,3-bis-(N-lactamyl) propane and the pharmaceutical and cosmetic use thereof” (BASF Aktiengesellschaft, priority 1996, dated 2002)",
  "key": {"[1]": {"conditions": "cited from earlier work"}, "[2]": {"assay": "Saturation solubility of active ingredients in 1,3-bis(1-pyrrolidonyl)butane as solvent (Example 5)", "type": "physicochemical", "conditions": "22 °C, organic solvent or mixture, thermodynamic from solid, stirred at room temperature for 72 hours, filtrate by UV photometry, read-out: maximum solubility at 22° C.", "method": "It was stirred at room temperature for 72 hours."}, "[3]": {"assay": "Maximum soluble amount of active ingredient in cosolvent:water mixtures and phosphate buffer (Example 6)", "conditions": "for cosolvent quality mixed with water compared with propylene glycol: for hydrophilic active ingredients such as paracetamol, theophylline or trimethoprim", "description": "To 20 ml 1,3-bis(1-pyrrolidonyl)butane was added the active ingredient in an amount which is above the amount of this active ingredient able to dissolve in this volume. It was stirred at room temperature for 72 hours. As a rule, this time ensured that the saturation solubility in the medium was reached. After subsequent filtration, the content of active ingredient in the filtrate was determined by UV photometry.\ne) 1,2-Propylene glycol (1,2-PG):water (1:1)\nf) 1,2-Propylene glycol (1,2-PG):water (1:3)"}, "[4]": {"conditions": "25% 1,2-PG (1,2-propylene glycol:water 1:3), 20 ml"}, "[5]": {"conditions": "25% DHVC (1,3-bis(1-caprolactamyl)butane:water 1:3), 20 ml"}, "[6]": {"conditions": "25% DHVP (1,3-bis(1-pyrrolidonyl)butane:water 1:3), 20 ml"}, "[7]": {"conditions": "50% 1,2-PG (1,2-propylene glycol:water 1:1), 20 ml"}, "[8]": {"conditions": "50% DHVC (1,3-bis(1-caprolactamyl)butane:water 1:1), 20 ml"}, "[9]": {"conditions": "50% DHVP (1,3-bis(1-pyrrolidonyl)butane:water 1:1), 20 ml"}, "[10]": {"conditions": "in 20 ml 25% 1,2-PG (1,2-propylene glycol:water 1:3)"}, "[11]": {"conditions": "in 20 ml 25% DHVC (1,3-bis(1-caprolactamyl)butane:water 1:3)"}, "[12]": {"conditions": "in 20 ml 25% DHVP (1,3-bis(1-pyrrolidonyl)butane:water 1:3)"}, "[13]": {"conditions": "in 20 ml 50% 1,2-PG (1,2-propylene glycol:water 1:1)"}, "[14]": {"conditions": "in 20 ml 50% DHVC (1,3-bis(1-caprolactamyl)butane:water 1:1)"}, "[15]": {"conditions": "in 20 ml 50% DHVP (1,3-bis(1-pyrrolidonyl)butane:water 1:1)"}, "[16]": {"conditions": "in 20 ml phosphate buffer pH 7.0"}},
  "data": [
    {"smiles": "CC(O)CO", "note": "(stereo not drawn) [propylene glycol]", "values": [
      {"measurement": "miscibility/solubility with fixed oils", "setting": "[1]", "result": "immiscible"}
    ]},
    {"smiles": "CCS(=O)(=O)Oc1ccc2c(C)c(C)c(=O)oc2c1", "note": "[Esuprone]", "values": [
      {"measurement": "solubility at 72 h", "setting": "[2]", "result": 190, "unit": "mg/mL"}
    ]},
    {"smiles": "COc1cc(Cc2cnc(N)nc2N)cc(OC)c1OC", "note": "[Trimethoprim]", "values": [
      {"measurement": "solubility at 72 h", "setting": "[2]", "result": 150, "unit": "mg/mL"},
      {"measurement": "Solubility [%]", "setting": "[3]; [4]", "result": 0.28, "unit": "%"},
      {"measurement": "Solubility [%]", "setting": "[3]; [5]", "result": 1.69, "unit": "%"},
      {"measurement": "Solubility [%]", "setting": "[3]; [6]", "result": 1.03, "unit": "%"},
      {"measurement": "Solubility [%]", "setting": "[3]; [7]", "result": 0.89, "unit": "%"},
      {"measurement": "Solubility [%]", "setting": "[3]; [8]", "result": 5.09, "unit": "%"},
      {"measurement": "Solubility [%]", "setting": "[3]; [9]", "result": 3.55, "unit": "%"},
      {"measurement": "Solubility [%]", "setting": "[3]; Phosphate buffer pH 7.0, 20 ml", "result": 0.12, "unit": "%"},
      {"measurement": "Dissolved substance", "setting": "[3]; [10]", "result": 0.0558, "unit": "g"},
      {"measurement": "Dissolved substance", "setting": "[3]; [11]", "result": 0.3382, "unit": "g"},
      {"measurement": "Dissolved substance", "setting": "[3]; [12]", "result": 0.2063, "unit": "g"},
      {"measurement": "Dissolved substance", "setting": "[3]; [13]", "result": 0.1785, "unit": "g"},
      {"measurement": "Dissolved substance", "setting": "[3]; [14]", "result": 1.0170, "unit": "g"},
      {"measurement": "Dissolved substance", "setting": "[3]; [15]", "result": 0.7097, "unit": "g"},
      {"measurement": "Dissolved substance", "setting": "[3]; [16]", "result": 0.0245, "unit": "g"}
    ]},
    {"smiles": "Nc1ccc(S(=O)(=O)Nc2nccs2)cc1", "note": "[Sulfathiazole]", "values": [
      {"measurement": "solubility at 72 h", "setting": "[2]", "result": 200, "unit": "mg/mL"}
    ]},
    {"smiles": "Cn1c(=O)c2[nH]cnc2n(C)c1=O", "note": "[theophylline]", "values": [
      {"measurement": "Solubility [%]", "setting": "[3]; [4]", "result": 1.00, "unit": "%"},
      {"measurement": "Solubility [%]", "setting": "[3]; [5]", "result": 1.55, "unit": "%"},
      {"measurement": "Solubility [%]", "setting": "[3]; [6]", "result": 1.30, "unit": "%"},
      {"measurement": "Solubility [%]", "setting": "[3]; [7]", "result": 1.54, "unit": "%"},
      {"measurement": "Solubility [%]", "setting": "[3]; [8]", "result": 2.74, "unit": "%"},
      {"measurement": "Solubility [%]", "setting": "[3]; [9]", "result": 1.85, "unit": "%"},
      {"measurement": "Solubility [%]", "setting": "[3]; Phosphate buffer pH 7.0, 20 ml", "result": 0.59, "unit": "%"},
      {"measurement": "Dissolved substance", "setting": "[3]; [10]", "result": 0.1998, "unit": "g"},
      {"measurement": "Dissolved substance", "setting": "[3]; [11]", "result": 0.3105, "unit": "g"},
      {"measurement": "Dissolved substance", "setting": "[3]; [12]", "result": 0.2609, "unit": "g"},
      {"measurement": "Dissolved substance", "setting": "[3]; [13]", "result": 0.3083, "unit": "g"},
      {"measurement": "Dissolved substance", "setting": "[3]; [14]", "result": 0.5476, "unit": "g"},
      {"measurement": "Dissolved substance", "setting": "[3]; [15]", "result": 0.3703, "unit": "g"},
      {"measurement": "Dissolved substance", "setting": "[3]; [16]", "result": 0.1172, "unit": "g"}
    ]},
    {"smiles": "C[C@]12C=CC(=O)C=C1CC[C@@H]1[C@@H]2C(=O)C[C@@]2(C)[C@H]1CC[C@]2(O)C(=O)CO", "note": "[Prednisone]", "values": [
      {"measurement": "solubility at 72 h", "setting": "[2]", "result": 200, "unit": "mg/mL"}
    ]},
    {"smiles": "CC(CCN1CCCCCC1=O)N1CCCCCC1=O", "note": "(stereo not drawn) [Example 4, 1,3-Bis-(1-caprolactamyl)Butane]", "values": [
      {"measurement": "cosolvent quality mixed with water compared with propylene glycol", "setting": "[3]", "result": "better cosolvents"}
    ]},
    {"smiles": "CC(CCN1CCCC1=O)N1CCCC1=O", "note": "(stereo not drawn) [Example 2, 1,3-Bis-(1-pyrrolidonyl)Butane]", "values": [
      {"measurement": "cosolvent quality mixed with water compared with propylene glycol", "setting": "[3]", "result": "better cosolvents"}
    ]},
    {"smiles": "CC(=O)Nc1ccc(O)cc1", "note": "[Paracetamol]", "values": [
      {"measurement": "solubility at 72 h", "setting": "[2]", "result": 250, "unit": "mg/mL"},
      {"measurement": "Solubility [%]", "setting": "[3]; [4]", "result": 2.77, "unit": "%"},
      {"measurement": "Solubility [%]", "setting": "[3]; [6]", "result": 10.62, "unit": "%"},
      {"measurement": "Solubility [%]", "setting": "[3]; [7]", "result": 6.46, "unit": "%"},
      {"measurement": "Solubility [%]", "setting": "[3]; [9]", "result": 25.15, "unit": "%"},
      {"measurement": "Solubility [%]", "setting": "[3]; Phosphate buffer pH 7.0, 20 ml", "result": 1.36, "unit": "%"},
      {"measurement": "Dissolved substance", "setting": "[3]; [10]", "result": 0.5537, "unit": "g"},
      {"measurement": "Dissolved substance", "setting": "[3]; [12]", "result": 2.1244, "unit": "g"},
      {"measurement": "Dissolved substance", "setting": "[3]; [13]", "result": 1.2914, "unit": "g"},
      {"measurement": "Dissolved substance", "setting": "[3]; [15]", "result": 5.0298, "unit": "g"},
      {"measurement": "Dissolved substance", "setting": "[3]; [16]", "result": 0.2718, "unit": "g"}
    ]},
    {"smiles": "OCC(O)CO", "note": "[glycerol]", "values": [
      {"measurement": "miscibility/solubility with fixed oils", "setting": "[1]", "result": "not soluble"},
      {"measurement": "miscibility with water", "setting": "[1]; water", "result": "miscible"}
    ]}
  ]
}
